ChEMBL document CHEMBL1201862, “PubChem BioAssay data set” (2004)
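The compound was tested at five concentrations on cells cultured in 96-well plates, with a 48-hour exposure period. GI50: concentration for 50% inhibition of growth.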 Activity calls are given as the source filed them. Cut-off read from the data, not from the text of the source: active = GI50 up to about 1.1 µM and inactive = higher.

Experiments:
Assay in all cases: NCI anticancer screen, dose series, 48 h
[1] = test system: A498
[2] = test system: ACHN
[3] = test system: BT-549
[4] = test system: CAKI-1
[5] = test system: Hs-578T
[6] = test system: M14
[7] = test system: MCF7
[8] = test system: Malme-3M
[9] = test system: NCI-H460
[10] = test system: NCI-H522
[11] = test system: OVCAR-3
[12] = test system: OVCAR-4
[13] = test system: PC-3
[14] = test system: SF-539
[15] = test system: SK-MEL-2
[16] = test system: SW-620
[17] = test system: TK-10
[18] = test system: UACC-62
[19] = test system: HL-60
[20] = test system: RPMI-8226

Measured: GI50

Fc1ccccc1-c1cc(S)c2cc3c(cc2n1)OCO3
inactive: [1] 10.4 µM | [2] 38 µM | [3] 61 µM | [4] 9.93 µM | [5] 5.24 µM | [6] 6.61 µM | [7] 4.88 µM | [8] 11.7 µM | [9] 4.57 µM | [10] 13.8 µM | [11] 10.9 µM | [12] > 100 µM | [13] 6.08 µM | [14] 7.18 µM | [15] 7.69 µM | [16] 5.85 µM | [17] > 48.3 µM | [18] 3.71 µM

COc1cc(/C=C2\CCc3cc(OC)c(OC)cc3C2=O)cc(OC)c1
inactive: [1] 6.82 µM | [2] 30.3 µM | [3] 10.4 µM | [4] 8.67 µM | [19] 3.51 µM | [5] 23.9 µM | [6] 5.47 µM | [7] 4.2 µM | [8] 10 µM | [9] 5.41 µM | [10] 5.93 µM | [11] 4.47 µM | [12] 21.4 µM | [13] 8.55 µM | [20] 12.8 µM | [14] 5.38 µM | [15] 5.96 µM | [16] 6.19 µM | [17] 24 µM | [18] 3.75 µM

C[C@]12CC[C@H](O)CC1=CC[C@@H]1C2CC[C@]2(C)c3n[nH]nc3CC12 (some centres undefined)
inactive: [1] > 100 µM | [2] > 100 µM | [3] > 100 µM | [4] > 100 µM | [19] 44.4 µM | [5] 38.6 µM | [6] > 100 µM | [7] > 100 µM | [8] > 100 µM | [9] > 100 µM | [10] > 100 µM | [11] > 100 µM | [12] > 100 µM | [13] > 100 µM | [14] > 100 µM | [16] > 100 µM | [17] > 100 µM | [18] 96.6 µM

CCCCNC(=S)N/N=C/c1cccc(C)n1
inactive: [1] 36.1 µM | [2] 23 µM | [3] 49.4 µM | [4] 33.9 µM | [19] 23.2 µM | [5] > 100 µM | [6] 25.1 µM | [7] 37.8 µM | [8] 52.2 µM | [9] 32.4 µM | [10] 18.6 µM | [11] > 100 µM | [12] 55.1 µM | [13] 47 µM | [20] 25.5 µM | [14] 29.7 µM | [16] 49.1 µM | [17] 29.7 µM | [18] 25.6 µM

Cn1c(=O)c2c(nc3n(CC(O)CCl)c(=O)ccn23)n(C)c1=O (centres undefined)
inactive: [1] 54.5 µM | [2] 15.4 µM | [3] > 100 µM | [4] 17 µM | [19] 15.5 µM | [5] 41.4 µM | [6] 52.7 µM | [7] 40.4 µM | [9] 29.9 µM | [10] 16.6 µM | [11] 77.1 µM | [12] 61.8 µM | [13] > 100 µM | [20] 19.5 µM | [14] 46.7 µM | [15] > 100 µM | [16] 46.8 µM | [17] 89.3 µM | [18] 36.5 µM

C=CCC1(O)c2cccc(O)c2C(=O)c2c(O)cccc21
inactive: [1] 29 µM | [2] 32.5 µM | [3] 29.6 µM | [4] 31.2 µM | [19] 20.5 µM | [5] 24.4 µM | [6] 20.8 µM | [7] 30.1 µM | [9] 31.8 µM | [10] 23.8 µM | [11] 47.9 µM | [12] 28.4 µM | [13] 26 µM | [20] 31.7 µM | [14] 57.8 µM | [15] 17.3 µM | [16] 31.6 µM | [17] 32.7 µM

COc1ccc2c(c1)CC[C@@H]1C2CC[C@]2(C)C(=O)N(C)C(=O)CC12 (some centres undefined)
inactive: [1] > 100 µM | [2] > 100 µM | [3] > 100 µM | [4] > 100 µM | [19] 15.7 µM | [5] 42 µM | [6] > 100 µM | [7] > 100 µM | [8] > 100 µM | [9] > 100 µM | [10] > 100 µM | [11] > 100 µM | [12] > 100 µM | [13] > 100 µM | [14] > 100 µM | [16] > 100 µM | [17] > 100 µM | [18] > 100 µM

CCOc1ccc2nc(NC(=O)C(=O)C(c3cnc4ccccc4n3)[N+](=O)[O-])sc2c1 (centres undefined)
inactive: [1] > 100 µM | [2] 43.8 µM | [3] > 100 µM | [4] > 100 µM | [19] 56.2 µM | [5] > 100 µM | [6] > 100 µM | [7] > 100 µM | [8] > 100 µM | [9] > 100 µM | [10] 45.4 µM | [11] > 100 µM | [12] > 100 µM | [13] > 100 µM | [20] 61.5 µM | [14] > 100 µM | [15] > 100 µM | [17] > 100 µM | [18] > 100 µM
